Square brackets hold non-standard residues; d marks the D form. Peptide text beside a SMILES is read from it. * marks the point of attachment. Phe(3-CF3) = N[C@@H](Cc1cccc(C(F)(F)F)c1)C(=O)O; Abu(4,4,4-F3) = N[C@@H](CC(F)(F)F)C(=O)O; Pro(cis-4-F) = O=C(O)[C@@H]1C[C@H](F)CN1; Phe(4-NH2) = Nc1ccc(C[C@H](N)C(=O)O)cc1; Phe(4-Me) = Cc1ccc(C[C@H](N)C(=O)O)cc1; Dab(3S-OH) = NC[C@H](O)[C@H](N)C(=O)O; Hyp = O=C(O)[C@@H]1C[C@@H](O)CN1; Met(O) = CS(=O)CC[C@H](N)C(=O)O; ΔZArg = N=C(N)NCC/C=C(\N)C(=O)O; AllylGly = C=CC[C@H](N)C(=O)O; hLys = NCCCCC[C@H](N)C(=O)O; dOrn = NCCC[C@@H](N)C(=O)O; Dab = NCC[C@H](N)C(=O)O; NH(CH2)5NH2 = NCCCCCN*; NH(CH2)4NH2 = NCCCCN*
Experiments:
Assay in all cases: MIC, broth microdilution (CLSI), reference strain
Conditions in all cases: CAMHB
[1] = tested on: Pseudomonas aeruginosa ATCC 27853
[2] = tested on: Acinetobacter baumannii ATCC 19606
[3] = tested on: Escherichia coli ATCC 25922
[4] = tested on: Staphylococcus aureus ATCC 13709

Structure (SMILES)	Pa: MIC Pseudomonas aeruginosa ATCC 27853 [1]	Ab: MIC Acinetobacter baumannii ATCC 19606 [2]	Ec: MIC Escherichia coli ATCC 25922 [3]	Sa: MIC Staphylococcus aureus ATCC 13709 [4]
C[C@H](NC(=O)[C@@H](NC(=O)[C@@H](N)CCCCN)[C@@H](O)CN)C(=O)NCC(=O)N[C@H](CCCN)C(=O)N1CCC[C@H]1C(=O)N[C@@H](Cc1ccc(N)cc1)C(=O)N[C@@H](CCCCN)C(=O)N/C(=C\CCNC(=N)N)C(=O)O [24.105] (H-K[Dab(3S-OH)]AG[dOrn]P[Phe(4-NH2)]K[ΔZArg]-OH)	− (>32 μg/mL)	− (>32 μg/mL)	+ (≤32 μg/mL)	+ (≤32 μg/mL)
C[C@H](NC(=O)[C@H](CCN)NC(=O)[C@H](N)CCCCN)C(=O)NCC(=O)N[C@H](CCCN)C(=O)N1CCC[C@H]1C(=O)N[C@@H](Cc1cnc[nH]1)C(=O)N[C@@H](CCCCN)C(=O)N/C(=C\CCNC(=N)N)C(=O)N[C@@H](CCCCN)C(=O)NCCCCN [14.22] (H-[dK][Dab]AG[dOrn]PHK[ΔZArg]K-{NH(CH2)4NH2})	− (>32 μg/mL)	− (>32 μg/mL)	− (>32 μg/mL)	+ (≤32 μg/mL)
N=C(N)NCC/C=C(\NC(=O)[C@H](CCCCN)NC(=O)[C@H](Cc1cnc[nH]1)NC(=O)[C@@H]1CCCN1C(=O)[C@@H](CCCN)NC(=O)CNC(=O)[C@H](CO)NC(=O)[C@@H](NC(=O)[C@@H](N)CCCCN)[C@@H](O)CN)C(=O)O [26.2] (H-K[Dab(3S-OH)]SG[dOrn]PHK[ΔZArg]-OH)	− (>32 μg/mL)	− (>32 μg/mL)	+ (≤32 μg/mL)	+ (≤32 μg/mL)
N=C(N)NCC/C=C(\NC(=O)[C@H](CCCCN)NC(=O)[C@H](Cc1cnc[nH]1)NC(=O)[C@@H]1CCCN1C(=O)[C@@H](CCCN)NC(=O)CNC(=O)[C@H](Cc1cnc[nH]1)NC(=O)[C@@H](NC(=O)[C@@H](N)CCCCN)[C@@H](O)CN)C(=O)O [214.2] (H-K[Dab(3S-OH)]HG[dOrn]PHK[ΔZArg]-OH)	− (>32 μg/mL)	− (>32 μg/mL)	− (>32 μg/mL)	+ (≤32 μg/mL)
Cc1ccc(C[C@H](NC(=O)[C@@H]2CCCN2C(=O)[C@@H](CCCN)NC(=O)CNC(=O)[C@H](C)NC(=O)[C@@H](NC(=O)[C@@H](N)CCCCN)[C@@H](O)CN)C(=O)N[C@@H](CCCCN)C(=O)N/C(=C\CCNC(=N)N)C(=O)O)cc1 [24.104] (H-K[Dab(3S-OH)]AG[dOrn]P[Phe(4-Me)]K[ΔZArg]-OH)	− (>32 μg/mL)	− (>32 μg/mL)	+ (≤32 μg/mL)	++ (≤8 μg/mL)
C[C@H](NC(=O)[C@@H](NC(=O)[C@@H](N)CCCCN)[C@@H](O)CN)C(=O)NCC(=O)N[C@H](CCCN)C(=O)N1CCC[C@H]1C(=O)N[C@@H](Cc1cnc[nH]1)C(=O)N[C@@H](CCCCCN)C(=O)N[C@H](CCCNC(=N)N)C(N)=O [24.121] (H-K[Dab(3S-OH)]AG[dOrn]PH[hLys][dR]-NH2)	− (>32 μg/mL)	− (>32 μg/mL)	− (>32 μg/mL)	++ (≤8 μg/mL)
C[C@H](NC(=O)[C@@H](NC(=O)[C@@H](N)CCCCN)[C@@H](O)CN)C(=O)NCC(=O)N[C@H](CCCN)C(=O)N1C[C@H](O)C[C@H]1C(=O)N[C@@H](Cc1cnc[nH]1)C(=O)N[C@@H](CCCCN)C(=O)N/C(=C\CCNC(=N)N)C(=O)O [24.70] (H-K[Dab(3S-OH)]AG[dOrn][Hyp]HK[ΔZArg]-OH)	− (>32 μg/mL)	− (>32 μg/mL)	− (>32 μg/mL)	+ (≤32 μg/mL)
C=CC[C@H](NC(=O)[C@@H](NC(=O)[C@@H](N)CCCCN)[C@@H](O)CN)C(=O)NCC(=O)N[C@H](CCCN)C(=O)N1CCC[C@H]1C(=O)N[C@@H](Cc1cnc[nH]1)C(=O)N[C@@H](CCCCN)C(=O)N/C(=C\CCNC(=N)N)C(=O)O [216.1] (H-K[Dab(3S-OH)][AllylGly]G[dOrn]PHK[ΔZArg]-OH)	− (>32 μg/mL)	− (>32 μg/mL)	− (>32 μg/mL)	+ (≤32 μg/mL)
N=C(N)NCC/C=C(\NC(=O)[C@H](CCCCN)NC(=O)[C@H](Cc1cnc[nH]1)NC(=O)[C@@H]1CCCN1C(=O)[C@@H](CCCN)NC(=O)CNC(=O)[C@@H](NC(=O)[C@@H](NC(=O)[C@@H](N)CCCCN)[C@@H](O)CN)[C@@H](O)CN)C(=O)NCCCCCN [22.2] (H-K[Dab(3S-OH)][Dab(3S-OH)]G[dOrn]PHK[ΔZArg]-{NH(CH2)5NH2})	+ (≤32 μg/mL)	− (>32 μg/mL)	++ (≤8 μg/mL)	++ (≤8 μg/mL)
C[C@H](NC(=O)[C@@H](CCCN)NC(=O)CNC(=O)[C@@H](NC(=O)[C@@H](NC(=O)[C@@H](N)CCCCN)[C@@H](O)CN)[C@@H](O)CN)C(=O)N[C@@H](Cc1cnc[nH]1)C(=O)N[C@@H](CCCCN)C(=O)N/C(=C\CCNC(=N)N)C(=O)N[C@@H](CCCCN)C(=O)NCCCCN [22.18] (H-K[Dab(3S-OH)][Dab(3S-OH)]G[dOrn]AHK[ΔZArg]K-{NH(CH2)4NH2})	− (>32 μg/mL)	− (>32 μg/mL)	+ (≤32 μg/mL)	++ (≤8 μg/mL)
N=C(N)NCC/C=C(\NC(=O)[C@H](CCCCN)NC(=O)[C@H](CC(F)(F)F)NC(=O)[C@@H]1CCCN1C(=O)[C@@H](CCCN)NC(=O)CNC(=O)[C@H](CCN)NC(=O)[C@@H](NC(=O)[C@@H](N)CCCCN)[C@@H](O)CN)C(=O)O [21.11] (H-K[Dab(3S-OH)][Dab]G[dOrn]P[Abu(4,4,4-F3)]K[ΔZArg]-OH)	− (>32 μg/mL)	− (>32 μg/mL)	++ (≤8 μg/mL)	++ (≤8 μg/mL)
C[C@H](NC(=O)[C@@H](NC(=O)[C@@H](N)CCCCN)[C@@H](O)CN)C(=O)NCC(=O)N[C@H](CCCN)C(=O)N1CCC[C@H]1C(=O)N[C@@H](CC[S+](C)[O-])C(=O)N[C@@H](CCCCN)C(=O)N/C(=C\CCNC(=N)N)C(=O)O (stereo partly drawn) [24.132] (H-K[Dab(3S-OH)]AG[dOrn]P[Met(O)]K[ΔZArg]-OH)	− (>32 μg/mL)	− (>32 μg/mL)	− (>32 μg/mL)	− (>32 μg/mL)
C[C@H](NC(=O)[C@@H](NC(=O)[C@@H](N)CCCCN)[C@@H](O)CN)C(=O)NCC(=O)N[C@H](CCCN)C(=O)N1CCC[C@H]1C(=O)N[C@@H](Cc1cccc(C(F)(F)F)c1)C(=O)N[C@@H](CCCCN)C(=O)N/C(=C\CCNC(=N)N)C(=O)O [24.87] (H-K[Dab(3S-OH)]AG[dOrn]P[Phe(3-CF3)]K[ΔZArg]-OH)	− (>32 μg/mL)	− (>32 μg/mL)	+ (≤32 μg/mL)	++ (≤8 μg/mL)
C[C@H](NC(=O)[C@@H](NC(=O)[C@@H](N)CCCCN)[C@@H](O)CN)C(=O)NCC(=O)N[C@H](CCCN)C(=O)N1C[C@@H](F)C[C@H]1C(=O)N[C@@H](Cc1cnc[nH]1)C(=O)N[C@@H](CCCCN)C(=O)N/C(=C\CCNC(=N)N)C(=O)O [24.144] (H-K[Dab(3S-OH)]AG[dOrn][Pro(cis-4-F)]HK[ΔZArg]-OH)	− (>32 μg/mL)	− (>32 μg/mL)	+ (≤32 μg/mL)	++ (≤8 μg/mL)
N=C(N)NCC/C=C(\NC(=O)[C@H](CCCCN)NC(=O)[C@H](Cc1cnc[nH]1)NC(=O)[C@@H]1CCCN1C(=O)[C@@H](CCCN)NC(=O)CNC(=O)[C@@H](NC(=O)[C@@H](NC(=O)[C@@H](N)CCCCN)[C@@H](O)CN)[C@@H](O)CN)C(=O)N[C@@H](CCCCN)C(N)=O [22.8] (H-K[Dab(3S-OH)][Dab(3S-OH)]G[dOrn]PHK[ΔZArg]K-NH2)	++ (≤8 μg/mL)	+ (≤32 μg/mL)	++ (≤8 μg/mL)	++ (≤8 μg/mL)
CC[C@H](C)[C@H](NC(=O)/C(=C/CCNC(=N)N)NC(=O)[C@H](CCCCN)NC(=O)[C@H](Cc1cnc[nH]1)NC(=O)[C@@H]1CCCN1C(=O)[C@@H](CCCN)NC(=O)CNC(=O)[C@H](C)NC(=O)[C@@H](NC(=O)[C@@H](N)CCCCN)[C@@H](O)CN)C(=O)O [24.123] (H-K[Dab(3S-OH)]AG[dOrn]PHK[ΔZArg]I-OH)	− (>32 μg/mL)	− (>32 μg/mL)	− (>32 μg/mL)	+ (≤32 μg/mL)
CCOC(=O)[C@H](CCCCN)NC(=O)/C(=C/CCNC(=N)N)NC(=O)[C@H](CCCCN)NC(=O)[C@H](Cc1cnc[nH]1)NC(=O)[C@@H]1CCCN1C(=O)[C@@H](CCCN)NC(=O)CNC(=O)[C@@H](NC(=O)[C@@H](NC(=O)[C@@H](N)CCCCN)[C@@H](O)CN)[C@@H](O)CN [22.28] (H-K[Dab(3S-OH)][Dab(3S-OH)]G[dOrn]PHK[ΔZArg]K-OEt)	− (>32 μg/mL)	− (>32 μg/mL)	+ (≤32 μg/mL)	++ (≤8 μg/mL)
N=C(N)NCC/C=C(\NC(=O)[C@H](CCCCN)NC(=O)[C@H](Cc1cnc[nH]1)NC(=O)[C@@H]1CCCN1C(=O)[C@@H](CCCN)NC(=O)CNC(=O)[C@@H](NC(=O)[C@@H](NC(=O)[C@@H](N)CCCCN)[C@@H](O)CN)[C@@H](O)CN)C(N)=O [22.31] (H-K[Dab(3S-OH)][Dab(3S-OH)]G[dOrn]PHK[ΔZArg]-NH2)	− (>32 μg/mL)	− (>32 μg/mL)	++ (≤8 μg/mL)	++ (≤8 μg/mL)
